Measurements from EP1832576A1, “4-Biarylyl-1-phenolyzetidin-2-ones” (Microbia Inc., priority 2003, dated 2005).

Tested on: cholesterol absorption from the intestine
Assay: In Vivo Assay of Hypolipidemic Agents using the Rat Cholesterol Absorption Model
Set-up: species or system Female Sprague-Dawley rats
Settings: for inhibition at 1 mg/kg / inhibition at 0.3 mg/kg: po; for inhibition at 0.3 mg/kg: Table 2, footnote 6, perorally
Procedure: In Vivo Assay of Hypolipidemic Agents using the Rat Cholesterol Absorption Model. This model is based on models described by Burnett et al (2002), Bioorg. Med. Chem. Lett. 2002 Feb 11;12(3):315-8 and J. Lipid Res. 1999 Oct;40(10):1747-57. Female Sprague-Dawley rats weighing 150-250g are separated into […] and fasted overnight. The animals (4-6/group) are dosed perorally with 300µL test compounds in olive oil or suitable vehicle. Thirty minutes later, 3-5 microCuries ^3H-cholesterol per rat are delivered perorally in 300 µL olive oil. After three hours, 200 µL serum is collected, vortexed with scintillation fluid, and measured for radioactivity in a scintillation counter. Percent inhibition is defined as 100*(1-Ctest/Cctrl), where Ctest and Cctrl refer to ^3H levels in serum for the test compound and for the vehicle only control, respectively. Percent inhibition values are reported for a fixed dose. The ED50 is the dose at which the half-maximal effect on serum ^3H levels is observed for a given test compound.
Representative compounds of the invention were tested in the Rat Cholesterol Absorption model above.

[1] = Table 2, perorally, 1 mg/kg, 3H levels in serum three hours after 3H-cholesterol, versus vehicle only control
[2] = Table 1, perorally, 1 mg/kg, 3H levels in serum three hours after 3H-cholesterol, versus vehicle only control

## O=C1[C@H](CC[C@H](O)c2ccc(F)cc2)[C@@H](c2ccc(-c3cccc([C@@H]4O[C@H](CO)[C@@H](O)[C@H](O)[C@H]4O)c3)cc2)N1c1ccccc1 [Example 64, (1S)-1,5-anhydro-1-(4'-{(2S,3R)-3-[(3S)-3-(4-fluorophenyl)-3-hydroxypropyl]-4-oxo-1-phenylazetidin-2-yl}biphenyl-3-yl)-D-glucitol]
[1]
  inhibition at 1 mg/kg: 67%

## CN(C)S(=O)(=O)c1ccc(-c2ccc([C@@H]3[C@@H](CC[C@H](O)c4ccc(F)cc4)C(=O)N3c3ccc(F)cc3)cc2)cc1 [Example 15, 4'-{(2S,3R)-1-(4-fluorophenyl)-3-[(3S)-3-(4-fluorophenyl)-3-hydroxypropyl]-4-oxoazetidin-2-yl}-biphenyl-N,N-dimethylbiphenyl-4-sulfonamide]
[2]
  inhibition at 1 mg/kg: 8%

## O=C1[C@H](CC[C@H](O)c2ccc(F)cc2)[C@@H](c2ccc(-c3cccc([C@H](O)[C@H]4OC(O)[C@H](O)[C@@H](O)[C@@H]4O)c3)cc2O)N1c1ccccc1 (stereo partly drawn) [Example 73, (6S)-6-C-(4'-{(2S,3R)-3-[(3S)-3-(4-Fluorophenyl)-3-hydroxypropyl]-4-oxo-1-phenylazetidin-2-yl}-3'-hydroxybiphenyl-3-yl)-D-glucopyranose]
[1]
  inhibition at 1 mg/kg: 59%

## O=C1[C@H](CC[C@H](O)c2ccc(F)cc2)[C@@H](c2ccc(-c3ccc(O)cc3)s2)N1c1ccccc1 [Example 51, (3R,4S)-3-[(3S)-3-(4-Fluorophenyl)-3-hydroxypropyl]-4-[5-(4-hydroxyphenyl)-2-thienyl]-1-phenylazetidin-2-one]
[1]
  inhibition at 1 mg/kg: 39%

## O=C1[C@H](CC[C@H](O)c2ccc(F)cc2)[C@@H](c2ccc(-c3ccc([C@@H]4O[C@H](CO)[C@@H](O)[C@H](O)[C@H]4O)cc3)cc2O)N1c1ccccc1 [Example 66, (1S)-1,5-Anhydro-1-(4'-{(2S,3R)-3-[(3S)-3-(4-fluorophenyl)-3-hydroxypropyl]-4-oxo-1-phenylazetidin-2-yl}-3'-hydroxybiphenyl-4-yl)-D-glucitol]
  inhibition at 0.3 mg/kg: 71%

## COc1cc(OC)cc(-c2ccc([C@@H]3[C@@H](CC[C@H](O)c4ccc(F)cc4)C(=O)N3c3ccc(F)cc3)cc2)c1 [Example 107, (3R,4S)-4-(3',5'-dimethoxybiphenyl-4-yl)-1-(4-fluorophenyl)-3-[(3S)-3-(4-fluorophenyl)-3-hydroxypropyl]azetidin-2-one]
[2]
  inhibition at 1 mg/kg: 49%

## O=C1C(CCC(O)c2ccc(F)cc2)C(c2cccc(-c3ccc(O)cc3)c2)N1c1ccc(F)cc1 (stereo not shown) [Example 46]
[1]
  inhibition at 1 mg/kg: 30%

## O=C(O)c1cccc(-c2ccc([C@@H]3[C@@H](CC[C@H](O)c4ccc(F)cc4)C(=O)N3c3ccc(F)cc3)cc2)c1 [Example 21, 4'-{(2S,3R)-1-(4-fluorophenyl)3-[(3S)-3-(4-fluorophenyl)-3-hydroxypropyl]-4-oxoazetidin-2-yl]biphenyl-3-carboxylic acid]
[2]
  inhibition at 1 mg/kg: 68%

## O=C1[C@H](CC[C@H](O)c2ccc(F)cc2)[C@@H](c2ccc(-c3cccc(P(=O)(O)O)c3)cc2)N1c1ccccc1 [Example 56, (4'-{(2S,3R)-3-[(3S)-3-(4-Fluorophenyl)-3-hydroxypropyl]-4-oxo-1-phenylazetidin-2-yl}biphenyl-3-yl)phosphonic acid]
[2]
  inhibition at 1 mg/kg: 59%

## O=C1[C@H](CC[C@H](O)c2ccc(F)cc2)[C@@H](c2ccc(-c3cccc([C@H](O)[C@H]4OC(O)[C@H](O)[C@@H](O)[C@@H]4O)c3)cc2)N1c1ccccc1 (stereo partly drawn) [Example 71, (6S)-6-C-(4'-{(2S,3R)-3-[(3S)-3-(4-Fluorophenyl)-3-hydroxypropyl]-4-oxo-1-phenylazetidin-2-yl}biphenyl-3-yl)-D-glucopyranose]
[1]
  inhibition at 1 mg/kg: 65%

## O=C1[C@H](CC[C@H](O)c2ccc(F)cc2)[C@@H](c2ccc(-c3cc(O)cc(O)c3)cc2)N1c1ccc(F)cc1 [Example 114, (3R,4S)-4-(3',5'-dihydroxybiphenyl-4-yl)-1-(4-fluorophenyl)-3-[(3S)-3-(4-fluorophenyl)-3-hydroxypropyl]azetidin-2-one]
[2]
  inhibition at 1 mg/kg: 72%

## C=Cc1ccc(-c2ccc([C@@H]3[C@@H](CC[C@H](O)c4ccc(F)cc4)C(=O)N3c3ccc(F)cc3)cc2)cc1 [Example 84, (3R,4S)-1-(4-fluorophenyl)-3-[(3S)-3-(4-fluorophenyl)-3-hydroxypropyl]-4-(4'-vinylbiphenyl-4-yl)azetidin-2-one]
[2]
  inhibition at 1 mg/kg: 51%

## O=C1[C@H](CC[C@H](O)c2ccc(F)cc2)[C@@H](c2ccc(-c3cc(O)cc(F)c3)cc2)N1c1ccc(F)cc1 [Example 112, (3R,4S)-4-(3'-fluoro-5'-hydroxybiphenyl-4-yl)-1-(4-fluorophenyl)-3-[(3S)-3-(4-fluorophenyl)-3-hydroxypropyl]azetidin-2-one]
[2]
  inhibition at 1 mg/kg: 75%

## O=C1[C@H](CC[C@H](O)c2ccc(F)cc2)[C@@H](c2ccc(-c3cccc(C(F)(F)F)c3)cc2)N1c1ccc(F)cc1 [Example 92, (3R,4S)-1-(4-fluorophenyl)-3-[(3S)-3-(4-fluorophenyl)-3-hydroxypropyl]-4-[3'-(trifluoromethyl)biphenyl-4-yl]azetidin-2-one]
[2]
  inhibition at 1 mg/kg: 17%

## Cc1cccc(-c2ccc([C@@H]3[C@@H](CC[C@H](O)c4ccc(F)cc4)C(=O)N3c3ccc(F)cc3)cc2)c1 [Example 93, (3R,4S)-1-(4-fluorophenyl)-3-[(3S)-3-(4-fluorophenyl)-3-hydroxypropyl]-4-(3'-methylbiphenyl-4-yl)azetidin-2-one]
[2]
  inhibition at 1 mg/kg: 28%

## Nc1ccc(-c2ccc([C@@H]3[C@@H](CC[C@H](O)c4ccc(F)cc4)C(=O)N3c3ccc(F)cc3)cc2)cc1 [Example 28, (3R,4S)-1-(4-fluorophenyl)-3-[(3S)-3-(4-fluorophenyl)-3-hydroxypropyl]-4-(4'-aminobiphenyl-4-yl)azetidin-2-one]
[2]
  inhibition at 1 mg/kg: 56%

## O=C1[C@H](CC[C@H](O)c2ccc(F)cc2)[C@@H](c2ccc(-c3cccc(B(O)O)c3)cc2)N1c1ccc(F)cc1 [Example 115, (4'-{(2S,3R)-1-(4-fluorophenyl)-3-[(3S)-3-(4-fluorophenyl)-3-hydroxypropyl]-4-oxoazetidin-2-yl}biphenyl-3-yl)boronic acid]
[2]
  inhibition at 1 mg/kg: 70%

## COc1cc(F)cc(-c2ccc([C@@H]3[C@@H](CC[C@H](O)c4ccc(F)cc4)C(=O)N3c3ccc(F)cc3)cc2)c1 [Example 111, (3R,4S)-4-(3'-fluoro-5'-methoxybiphenyl-4-yl)-1-(4-fluorophenyl)-3-[(3S)-3-(4-fluorophenyl)-3-hydroxypropyl]azetidin-2-one]
[2]
  inhibition at 1 mg/kg: 72%

## O=C1[C@H](CC[C@H](O)c2ccc(F)cc2)[C@@H](c2ccc(-c3cccc([C@@H](O)[C@H]4OC(O)[C@H](O)[C@@H](O)[C@@H]4O)c3)cc2)N1c1ccccc1 (stereo partly drawn) [Example 72, (6R)-6-C-(4'-{(2S,3R)-3-[(3S)-3-(4-Fluorophenyl)-3-hydroxypropyl]-4-oxo-1-phenylazetidin-2-yl}biphenyl-3-yl)-D-glucopyranose]
  inhibition at 0.3 mg/kg: 27%

## O=C1[C@H](CC[C@H](O)c2ccc(F)cc2)[C@@H](c2cccc(-c3cccc(O)c3)c2)N1c1ccc(F)cc1 [Example 44, (3R,4S)-1-(4-fluorophenyl)-3-[(3S)-3-(4-fluorophenyl)-3-hydroxypropyl]-4-(3'-hydroxybiphenyl-3-yl)azetidin-2-one]
[1]
  inhibition at 1 mg/kg: 24%

## O=C1[C@H](CC[C@H](O)c2ccc(F)cc2)[C@@H](c2ccc(-c3cccc(P(=O)(O)O)c3)cc2)N1c1ccccc1 [Example 122, (4'-{(2S,3R)-3-[(3S)-3-(4-fIuorophenyI)-3-hydroxypropyl]-4-oxo-1-phenylazetidin-2-yl}biphenyl-3-yl)phosphonic acid]
[1]
  % inhibition at 1 mg/kg: 67%

## O=C(O)c1ccc(-c2ccc([C@@H]3[C@@H](CC[C@H](O)c4ccc(F)cc4)C(=O)N3c3ccc(F)cc3)cc2)cc1 [Example 22, 4'-{(2S,3R)-1-(4-fluorophenyl)3-[(3S)-3-(4-fluorophenyl)-3-hydroxypropyl]-4-oxoazetidin-2-yl]biphenyl-4-carboxylic acid]
[2]
  inhibition at 1 mg/kg: 52%

## CS(=O)(=O)c1cccc(-c2ccc([C@@H]3[C@@H](CC[C@H](O)c4ccc(F)cc4)C(=O)N3c3ccccc3)c(O)c2)c1 [Example 123, (3R,4S)-3-[(3S)-3-(4-fluorophenyl)-3-hydroxypropyl]-4-[3-hydroxy-3'-(methylsulfonyl)biphenyl-4-yl]-1-phenylazetidin-2-one]
[1]
  inhibition at 1 mg/kg: 72%

## CS(=O)(=O)c1ccc(-c2ccc([C@@H]3[C@@H](CC[C@H](O)c4ccc(F)cc4)C(=O)N3c3ccc(F)cc3)cc2)cc1 [Example 8, (3R,4S)-1-(4-fluorophenyl)-3-[(3S)-3-(4-fluorophenyl)-3-hydroxypropyl]-4-[4'-(methylsulfonyl)biphenyl-4-yl]azetidin-2-one]
[2]
  inhibition at 1 mg/kg: 53%

## CO[C@H]1O[C@H](COc2cccc(-c3ccc([C@@H]4[C@@H](CC[C@H](O)c5ccc(F)cc5)C(=O)N4c4ccc(F)cc4)cc3)c2)[C@@H](O)[C@H](O)[C@H]1O [Example 77, methyl 6-O-(4'-{(2S,3R)-1-(4-fluorophenyl)-3-[(3S)-3-(4-fluorophenyl)-3-hydroxypropyl]-4-oxoazetidin-2-yl}biphenyl-3-yl)-α-D-glucopyranoside]
[2]
  inhibition at 1 mg/kg: 70%
